Measurements from PubChem BioAssay AID1053172 (The Scripps Research Institute Molecular Screening Center, 2014).
The source made the active and inactive calls. No rule for the calls is given here.

Molecular target: HIV-1 integrase / human LEDGF/p75 complex
Experiment: inhibitors of HIV-1 IN-LEDGF/p75 DNA integration, dose response, biochemical, TR-FRET (AID 1053172)

SMILES	IC50
O=c1c(OC2OC(CO)C(O)C(O)C2OC2OC(CO)C(O)C(O)C2O)c(-c2ccc(O)cc2)oc2cc(O)cc(O)c12 (centres undefined)	8050 nM
C=C(C)C(=O)Nc1cccc(C2=NOC3(C2)C[C@@H](C(N)=O)N(C(=O)/C=C/C=C/C)C3)c1 (some centres undefined)	3250 nM
O=c1cc2c(=O)oc3cc(O)c(O)oc3c2c(O)c1O	244 nM
Oc1ccc(-c2cn3c(n2)SCC3)cc1O	1480 nM
Cc1c(CC(=O)N2CCN(C(=O)C3COc4ccccc4O3)CC2)c(=O)oc2c(O)c(O)ccc12 (centres undefined)	408 nM
O=C(COC(=O)c1c2c(nc3ccccc13)/C(=C\c1ccco1)CC2)NC1CCCC1	6440 nM
O=C1CC(=O)N(Cc2ccco2)C(=O)N1	691 nM
CN=c1scc(C)n1/N=C/c1ccc(O)c(O)c1O	4740 nM
O=S(=O)(O)c1ccc(O)c2cc(Nc3ccccc3)ccc12	723 nM
C=CC1=C(C(=O)O)N2C(=O)[C@@H](NC(=O)/C(=N/OCC(=O)O)c3csc(N)n3)[C@H]2SC1	287 nM
O=C(N/N=C/c1cccnc1)c1cc(O)c(O)c(O)c1	inactive
C=C(C)C(=O)Oc1ccc(N=Nc2ccc(C)cc2)ccc1=O	3480 nM
O=C1C=C(Nc2ccccc2O)c2ccccc2C1=O	7390 nM
O=c1cc(-c2ccc(O)c(O)c2)oc2cc(O)c(C3OC(CO)C(O)C(O)C3O)c(O)c12 (centres undefined)	1550 nM
CN(C)[C@@H]1C(=O)C(C(N)=O)=C(O)[C@@]2(O)C(=O)C3=C(O)c4c(O)cccc4[C@@](C)(O)C3[C@H](O)C12 (some centres undefined)	inactive
COc1c(-c2ccc(O)c(O)c2)oc2cc(O)cc(O)c2c1=O	1900 nM
CCN(CC)c1ccc(N=C2C=CC(=O)C=C2NC(C)=O)cc1	> 36600 nM (inactive)
Oc1ccc(NCc2ccccc2OCc2ccccc2)cc1	> 36500 nM (inactive)
CC1(C)OC(C)(C)/C(=C/Nc2ccc(O)cc2)C1=O	inactive
NC(=O)CC1Nc2cccc3cccc(c23)NC1=O (centres undefined)	> 36500 nM (inactive)
O=C1OC(c2cccs2)=N/C1=C/c1ccc(-c2cccc(C(=O)O)c2)o1	inactive
COc1c(O)cc2oc(-c3ccc(O)c(O)c3)cc(=O)c2c1O	1840 nM
Cc1ccc(N=C2NC(=O)/C(=C/C=C/c3ccco3)S2)cc1	9140 nM
O=C1c2cc(O)c(O)cc2OC(c2ccc(O)c(O)c2)C1O (centres undefined)	4690 nM
COc1ccccc1OCC(=O)N/N=C/C=C/c1ccc([N+](=O)[O-])o1	> 36500 nM (inactive)
O=C(O)c1ccc(-n2cccc2/C=C2/NC(=O)N(c3ccccc3)C2=O)cc1	2850 nM

SMILES	IC50
COc1cc(C)cc(C(=O)O)c1C1=C(O)c2cccc(O)c2C(=O)C1=O	4870 nM
C=C(C)C(=O)Nc1cccc(C2=NOC3(C2)C[C@@H](C(N)=O)N(C(=O)/C(C)=C/C)C3)c1 (some centres undefined)	3250 nM
Oc1ccc(/C=N/NC(=S)Nc2cccnc2)cc1O	4500 nM
NS(=O)(=O)c1ccc(N/N=C/c2ccc(O)c(O)c2O)c([N+](=O)[O-])c1	1240 nM
Cc1ccc(NC2=CC(=O)C(=O)c3ccccc32)cc1	8860 nM
COC(=O)c1ccc(C)c(NC(=O)CSc2sc3c(O)cc(=O)[nH]c3c2C#N)c1	inactive
COC(=O)C1CCN(C(=O)c2cc(-c3ccco3)nc3ccccc23)CC1	5920 nM
COC1=CC(=O)C(C2CC(=O)c3c(O)cc(O)cc3O2)=CC1=O (centres undefined)	> 36500 nM (inactive)
O=C1c2ccccc2C(=O)N1/N=C/c1ccc(O)c(O)c1	3000 nM
Cc1ccc(N=C2NC(=O)/C(=C/C=C/c3ccco3)S2)cc1C	7350 nM
O=c1cc(-c2ccc(O)c(O)c2)oc2c(C3O[C@H](CO)[C@@H](O)[C@H](O)[C@H]3O)c(O)cc(O)c12 (some centres undefined)	1260 nM
O=C(Cn1cnc([N+](=O)[O-])n1)c1ccc(O)c(O)c1	inactive
O=S(=O)(O)c1cc(O)c2cc(Nc3ccccc3)ccc2c1	2730 nM
O=C(O)c1cccc(-n2cccc2/C=C/[N+](=O)[O-])c1	8750 nM
Cc1cc(/C=C2\C(=O)NC(=O)N(c3ccccc3F)C2=O)c(C)n1-c1cc(C(=O)O)cc(C(=O)O)c1	815 nM
Cc1ccc(/C=C2/C(=O)c3ccc(C(=O)O)cc3C2=O)o1	2280 nM
O=C(CCN1CCN(c2ccccc2)CC1)N/N=C/c1ccc(O)c(O)c1O	1020 nM
O=C(O)c1cccc(-n2cccc2/C=C2/NC(=O)N(c3ccc(Cl)cc3)C2=O)c1	794 nM
O=C1NC(=Nc2ccccc2)S/C1=C\C=C\c1ccco1	4380 nM
O=C(Cc1nnc(NC(=O)c2ccccc2)s1)N/N=C\c1ccc(O)c(O)c1	2200 nM
S=c1[nH]nc(-c2ccco2)n1/N=C/C=C/c1ccco1	inactive
CC1=NN(c2cccc(C(=O)O)c2)C(=O)/C1=C\C=C\c1ccco1	734 nM
O=C(CCN1C(=O)/C(=C/c2ccco2)SC1=S)Nc1ccc(O)cc1C(=O)O	inactive
CSc1nc(N(CCO)CCO)c2sc3nc(-c4ccco4)c4c(c3c2n1)CCC4	4850 nM
O=C1c2c(O)cc(O)cc2O[C@@]12c1c(cc(O)c3c1O[C@H](c1ccc(O)cc1)[C@@H](O)C3)O[C@@H]2c1ccc(O)cc1	inactive
Nc1ccc2c(c1)C/C(=C/c1ccco1)C2=O	> 36600 nM (inactive)

SMILES	IC50
COc1ccc(/C=N/NC(=O)c2cc(O)c(O)c(O)c2)cc1Cn1cc([N+](=O)[O-])cn1	689 nM
O=C(NN1C(=O)/C(=C/C=C/c2ccco2)SC1=S)c1ccccc1O	1850 nM
CN(C)c1ccc2nc3ccc(=O)cc-3sc2c1	> 36500 nM (inactive)
O=C(Cc1csc(N2CCOCC2)n1)N/N=C/c1ccc(O)c(O)c1O	927 nM
O=C1C=C(O)c2[nH]c(=O)ccc2C1=O	3800 nM
CCOc1ccc(NC(=O)CN(C)C(=O)c2cc3c(s2)CCC3)cc1OCC	9570 nM
Cc1sc2nc(SCC(=O)c3ccc(O)c(O)c3)n(C)c(=O)c2c1C	3630 nM
O=[N+]([O-])c1cc(Br)c(O)c(C=Nc2ccc(N3CCOCC3)cc2)c1	inactive
O=C(Cc1cnn(-c2ccccc2)c1)c1ccc(O)c(O)c1O	> 36500 nM (inactive)
C=C(C)C(=O)Nc1cccc(C2=NOC3(C2)C[C@@H](C(N)=O)N(C(=O)C(=C)C)C3)c1 (some centres undefined)	5920 nM
COc1cc(-c2cc(=O)c3c(O)c(OC)c(OC)c(O)c3o2)ccc1O	4960 nM
O=C(O)C(Cc1ccccc1)N1C(=O)/C(=C/C=C/c2ccco2)SC1=S (centres undefined)	2740 nM
CC1OC(Oc2c(-c3cc(O)c(O)c(O)c3)oc3cc(O)cc(O)c3c2=O)C(O)C(O)C1O (centres undefined)	3090 nM
C=C(C)C(=O)Nc1cccc(C2=NOC3(C2)C[C@@H](C(N)=O)N(C(=O)C2(C)CC2)C3)c1 (some centres undefined)	2390 nM
Cc1ccc(-c2csc(NS(=O)(=O)c3cccc(F)c3)n2)o1	inactive
CCOc1ccc(Nc2ccc(N)c(S(=O)(=O)O)c2)cc1	inactive
O=C(O)c1ccc(-n2cccc2/C=C2/NC(=O)N(c3cccc(Cl)c3)C2=O)cc1	4250 nM
COCCN(CCOC)Cc1c(O)ccc2c1O/C(=C\c1ccco1)C2=O	> 12200 nM (inactive)
NC1=C(Cl)C(=O)c2ccc(S(N)(=O)=O)cc2C1=O	429 nM
O=c1[nH]c2cc3c(cc2cc1CN(Cc1cccnc1)Cc1nnnn1Cc1ccco1)OCCO3	inactive
O=C(O)Cc1c[nH]c2cccc(O)c12	7410 nM
O=C1C(=Cc2ccco2)CCC1=Cc1ccco1	1920 nM
O=S(=O)(O)c1cc(O)c(N=Nc2ccc(O)cc2O)c2ccccc12	inactive
CC(=O)c1ccc2c(c1)C1C=CCC1C(C(=O)O)N2 (centres undefined)	575 nM
O=C(N/N=C/c1ccc(F)cc1)c1cc(-c2ccco2)nc2ccccc12	8590 nM
Cc1nc2ccccc2c(=O)n1/N=C/c1ccc(O)c(O)c1O	2450 nM

SMILES	IC50
COc1cc(/C=C(\C#N)C(=O)c2ccc(O)c(O)c2)cc(I)c1O	752 nM
Cc1ccc(/C=C/C(=O)Nc2ccc([N+](=O)[O-])c(NC(=O)/C=C/c3ccc(C)o3)c2)o1	inactive
CC(C(=O)O)N1C(=O)/C(=C/C=C/c2ccco2)SC1=S (centres undefined)	452 nM
C=CCn1c(C)cc(C(=O)Cn2ncc(Cl)c(Cl)c2=O)c1C	inactive
NNc1cccc(C=Cc2ccccc2)cc1=O	> 36600 nM (inactive)
O=C(O)c1cccc2cccc(-c3c4ccc(=O)c(O)c-4oc4c(O)c(O)ccc34)c12	369 nM
C=CCn1c(SCC(=O)c2ccc(O)c(O)c2)nnc1-c1cccnc1	2380 nM
O=C(O)COc1ccc2c(c1)O/C(=C\c1ccco1)C2=O	1610 nM
CCN(CC)CCCNc1ccc2ncn3c4ccc(O)cc4c(=O)c1c23	> 36500 nM (inactive)
O=C1NC(=S)NC(=O)C1=Cc1cccn1-c1ccc(O)cc1	2210 nM
C=C1c2cccc(O)c2C(O)=C2C(=O)[C@]3(O)C(O)=C(C(N)=O)C(=O)[C@@H](N(C)C)[C@@H]3[C@@H](O)[C@H]12	2720 nM
CCOC(=O)c1cc2c(=Cc3ccc(N(C)C)cc3)c3ccccc3n2[n+]1C	inactive
C=C1c2cccc(O)c2C(=O)C2C(=O)[C@]3(O)C(=O)C(C(N)=O)C(=O)[C@@H](N(C)C)[C@@H]3[C@@H](O)[C@H]12 (some centres undefined)	4760 nM
CCCNC1=C(C)C(=O)C2=C(C1=O)C(COC(N)=O)[C@]1(OC)C3NC3CN21 (some centres undefined)	inactive
COc1cc(/C=C/C=C2/CC/C(=C/C=C/c3ccc(O)c(OC)c3)C2=O)ccc1O	4930 nM
Cc1cnc(C=NNC(N)=S)c2cccc(N)c12	inactive
CC1(C)OC(=O)C(=Cc2ccc(-c3ccc(Cl)c(C(=O)O)c3)o2)C(=O)O1	7910 nM
O=C(CSc1nc2ccccc2o1)N/N=C/c1ccc(O)c(O)c1	1930 nM
C[C@@H]1O[C@@H](Oc2c(-c3ccc(O)c(O)c3)oc3cc(O)cc(O)c3c2=O)[C@H](O)[C@H](O)[C@H]1O	2610 nM
COc1ccc(NC(=S)Nc2ccc3nsnc3c2)cc1	inactive
O=C(NN1C(=O)/C(=C/C=C/c2ccco2)SC1=S)c1ccncc1	1200 nM
O=c1c(O)c(-c2ccc(O)c(O)c2)oc2cc(O)ccc12	378 nM
COc1ccc(C(=O)CSc2nnc(-c3ccco3)c(-c3ccco3)n2)cc1	6450 nM
CN(C)C1C(=O)C(C(N)=O)=C(O)C2(O)C(=O)C3=C(O)c4c(O)cccc4C(C)(O)C3C(O)C12 (centres undefined)	inactive
O=C(N/N=C\C=C\c1ccc([N+](=O)[O-])o1)c1cccs1	> 36500 nM (inactive)
COc1cccc(-n2c(SCc3cc(=O)oc4cc(O)c(O)cc34)nc3ccccc3c2=O)c1	3810 nM
